Where two headings read alike, the source gives them in different places.
How the values were obtained:
[1] = system: human malarial parasite Plasmodium falciparum; assay: In vitro protease activity of malarial parasite, substrate Z-Phe-Arg-AMC; type: biochemical; details: read-out: P. falciparum IC50 (human)
Text: (§1) The following table summarizes the comparative IC50 values for selected cysteine protease inhibitors against the human malarial parasite Plasmodium falciparum and the mouse malarial parasite Plasmodium vinckei. The substrate used to measure in vitro protease activity was Z-Phe-Arg-AMC.

[2] = system: mouse malarial parasite Plasmodium vinckei; assay: as above; type: biochemical; details: read-out: P. vinckei IC50 (murine)
Text: as §1

[3] = target: T1, Cathepsin B from human placenta (Homo sapiens, UniProt P07858); assay: Inhibition of cathepsin B, Z-Arg-Arg-AMC fluorescence progress curves; type: biochemical; details: for Ki: corrected for substrate; for k/KI (kirr/KI): values without asterisk
T1 construct: Cathepsin B from human placenta, obtained from Sigma; purchased Sigma; host or cells: human placenta (tissue)
Summary of the method: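 Human placental enzyme (~10 nM) in 50 mM phosphate pH 6.2 with 2.5 mM DTT and 2.5 mM EDTA, 50 μM Z-Arg-Arg-AMC, inhibitors 30-0.001 μM, 25° C. AMC fluorescence (ex 380/em 460 nm) progress curves fitted for kobs; kobs/[I] reported, with kirr, KI and kirr/KI substrate-corrected for selected compounds.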

[4] = target: T2, Cathepsin L from rat liver (Rattus norvegicus, UniProt P07154); assay: Inhibition of cathepsin L, Z-Phe-Arg-AMC fluorescence progress curves; type: biochemical; details: for Ki: corrected for substrate; for k/KI (kirr/KI): values without asterisk; for k/KI (kirr/KI) / kobs /[I]* (approximate second-order inactivation constant): 25° C., pH 6.2; for kobs /[I]* (approximate second-order inactivation constant): values marked *
T2 construct: Cathepsin L from rat liver; from tissue; host or cells: rat liver
Summary of the method: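 Progress curves of AMC release (380/460 nm) over at least 3 inactivation half-times were fitted to kobs, reported as kobs/[I] or, via 1/[I] vs 1/kobs, kirr, KI (substrate-corrected) and kirr/KI.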

Cloned cathepsin S = target: T3, Cloned cathepsin S (Homo sapiens, UniProt P25774); assay: Inhibition of cathepsin S, Z-Val-Val-Arg-AMC fluorescence progress curves; type: biochemical; details: for Ki: corrected for substrate; for k/KI (kirr/KI): values without asterisk; for k/KI (kirr/KI) / kobs /[I]* (approximate second-order inactivation constant): 25° C., pH 6.5; for kobs /[I]* (approximate second-order inactivation constant): values marked *
T3 construct: made in house
Summary of the method: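 Progress curves at 25 °C in 100 mM phosphate pH 6.5, 2.5 mM DTT, 2.5 mM EDTA, 0.01% Triton, enzyme <1 nM, 10 μM substrate, inhibitors 30-0.001 μM; AMC fluorescence ex 380/em 460 nm. kobs from nonlinear fits gave kobs/[I]; selected compounds yielded kirr, KI (substrate-corrected), kirr/KI.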

cruzain, from T. cruzi = cruzain, from T. cruzi (Trypanosoma cruzi, UniProt P25779); assay: Inhibition of cruzain, as for cathepsin L; type: biochemical; details: for k/KI (kirr/KI): values without asterisk; for kobs /[I]* (approximate second-order inactivation constant): values marked *
Summary of the method: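 Run as for cathepsin L with 1 nM cruzain in 50 mM phosphate pH […], 2.5 mM DTT, 2.5 mM EDTA, 5 μM Z-Phe-Arg-AMC, at 25 °C, inhibitors 30-0.001 μM; fluorescence (ex 380/em 460 nm) followed continuously. kobs fitted from progress curves and kobs/[I] reported; selected compounds gave kirr, KI, kirr/KI, with KI corrected by (1+[S]/Km).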

[5] = system: Leishmania donovani amastigote infected mouse peritoneal macrophages; assay: In vitro antiprotozoal activity, Leishmania donovani; type: cell-based; design: key to percentage inhibition, L. donovani: the term "T" indicates the molecule to have displayed cytotoxicity
Experimental: (§2) In this table, the in vitro antiprotozoal activities of the indicated compounds were measured as percentage inhibition of Leishmania donovani amastigote infecteda mouse peritoneal macrophages, Trypanosoma cruzi amastigote infected macrophages, and Trypanosoma brucei extracellular bloodstream forms.

[6] = system: Trypanosoma cruzi amastigote infected macrophages; assay: In vitro antiprotozoal activity, Trypanosoma cruzi; type: cell-based
Experimental: as §2

[7] = system: Trypanosoma brucei extracellular bloodstream forms; assay: In vitro antiprotozoal activity, Trypanosoma brucei; type: cell-based
Experimental: as §2

calpain = assay: Inhibition (inactivation) of calpain, Suc-Leu-Tyr-AMC; type: biochemical; details: pH 7.5, 5 mM CaCl2, 25° C.; for kobs /[I]*: values marked * (or %); for k/KI (kirr/KI): values without asterisk
Experimental: The inhibitors were tested against calpain at 1 or 2% as for the other enzymes. The reaction conditions were 50 mM Tris, pH 7.5, 5 mM CaCl2, 2.5 mM DTT, assayed at 25° C. The substrate was 100 μM Suc-Leu-Tyr-AMC.

T. cruzi = T. cruzi infected irradiated J774 cells; type: cell-based; design: dose or concentration left out as unconfirmed; details: thereafter without inhibitor; compounds listed in decreasing order of effectiveness
Experimental: Irradiated J774 cells were infected with T. cruzi and simultaneously treated with […] of peptidyl vinyl derivatives for 5 days; thereafter without inhibitor. The following compounds were effective in decreasing order: Mu-Phe-ArgVSPh, Boc-Tyr(I2)-HphVSPh, Mu-Phe-VaIVSPh, Boc-Tic-HphVSPh, Mu-Phe-Ser(OBzl)VSPh, Mu-Leu-HphVSPh, Mu-Tyr(I2)-HphVSPh, Mu-Phe-LysVSPh, Mu-Tic-HphVSPh.

T2 sequence (P07154 114-288 limits assumed): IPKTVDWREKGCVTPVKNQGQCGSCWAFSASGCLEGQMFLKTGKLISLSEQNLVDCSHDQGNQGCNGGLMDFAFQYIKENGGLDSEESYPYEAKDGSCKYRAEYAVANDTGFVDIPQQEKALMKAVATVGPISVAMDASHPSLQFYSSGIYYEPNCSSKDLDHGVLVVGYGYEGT
T2 sequence (P07154 291-334 limits assumed): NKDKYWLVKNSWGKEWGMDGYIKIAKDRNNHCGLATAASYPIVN
cruzain, from T. cruzi, sequence (P25779 123-337 limits assumed): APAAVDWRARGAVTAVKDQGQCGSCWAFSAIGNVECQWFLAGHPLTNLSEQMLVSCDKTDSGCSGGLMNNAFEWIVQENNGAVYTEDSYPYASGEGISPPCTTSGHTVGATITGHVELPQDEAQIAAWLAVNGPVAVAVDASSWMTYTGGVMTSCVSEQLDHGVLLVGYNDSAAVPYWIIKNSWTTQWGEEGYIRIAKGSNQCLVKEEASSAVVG
T3 sequence (P25774 115-331): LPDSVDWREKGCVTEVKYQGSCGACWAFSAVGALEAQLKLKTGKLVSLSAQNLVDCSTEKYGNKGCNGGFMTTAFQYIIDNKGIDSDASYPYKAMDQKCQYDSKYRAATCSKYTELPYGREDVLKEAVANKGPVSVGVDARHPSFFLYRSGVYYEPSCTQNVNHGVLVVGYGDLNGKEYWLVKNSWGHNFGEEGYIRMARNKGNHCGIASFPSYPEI

COC(=O)C1CCCN1C(=O)C(CC(C)C)NC(=O)/C=C/[C@H](CCc1ccccc1)NC(=O)[C@H](Cc1ccccc1)NC(=O)N1CCOCC1 (stereo partly drawn) [Mu-Phe-HphVAMLeu-ProOMe, (S)-(E)-(N-leucylprolinemethylester)-4-(4-morpholinecarbonylphenyl-alanyl)amino-6-phenyl-2-hexenamide]
IC50 ([1]; cells printed in nM): 80 nM
IC50 ([2]; cells printed in nM): 600 nM

O=C(NCCCC[C@@H](/C=C/S(=O)(=O)c1ccccc1)NC(=O)[C@H](Cc1ccccc1)NC(=O)N1CCOCC1)OCc1ccccc1 [Mu-Phe-Lys(Z)VSPh, (S)-(E)-7-(benzyloxycarbonyl)amino-3-(4-morpholinecarbonylphenylalanyl)-amino-1-phenylsulfonyl-1-heptene]
kirr [3]: 0.18 s⁻¹
Ki [3]: 4700 nM
k/KI (kirr/KI) ([3]; 25° C., pH 6.2): 39,200 M^-1 sec^-1
kirr [4]: 0.45 s⁻¹
Ki [4]: 3800 nM
k/KI (kirr/KI) [4]: 120,000 M^-1 sec^-1
kirr (Cloned cathepsin S): 0.14 s⁻¹
Ki (Cloned cathepsin S): 54 nM
k/KI (kirr/KI) (Cloned cathepsin S): 2,600,000 M^-1 sec^-1
k/KI (kirr/KI) (cruzain, from T. cruzi): 44,500 M^-1 sec^-1
percentage inhibition, L. donovani ([5]; 3 uM): 0%
percentage inhibition, L. donovani ([5]; 10 uM): 0%
percentage inhibition, L. donovani ([5]; 30 uM): 0%
percentage inhibition, L. donovani ([5]; 90 uM): 0%
percentage inhibition, T. cruzi ([6]; 3 uM): 0%
percentage inhibition, T. cruzi ([6]; 10 uM): 0%
percentage inhibition, T. cruzi ([6]; 30 uM): 0%
percentage inhibition, T. cruzi ([6]; 90 uM): 0%
ED50, T. brucei [7]: 3640 nM
percentage inhibition, T. brucei ([7]; 1 uM): 19.8%
percentage inhibition, T. brucei ([7]; 3 uM): 29.9%
percentage inhibition, T. brucei ([7]; 10 uM): 81.3%
percentage inhibition, T. brucei ([7]; 30 uM): 100%
percentage inhibition, T. brucei ([7]; 90 uM): 100%
IC50 ([1]; cells printed in nM): 100 nM
IC50 ([2]; cells printed in nM): 80 nM

(S)-(E)-3-(4-morpholinecarbonylphenylalanyl)amino-4-methyl-1-phenylsulfonyl-1-pentene [Mu-Phe-ValVSPh]
kirr [4]: 0.19 s⁻¹
Ki [4]: 2600 nM
k/KI (kirr/KI) [4]: 74,000 M^-1 sec^-1
kirr (Cloned cathepsin S): 0.039 s⁻¹
Ki (Cloned cathepsin S): 130 nM
k/KI (kirr/KI) (Cloned cathepsin S): 290,000 M^-1 sec^-1
kobs /[I]* (approximate second-order inactivation constant) (cruzain, from T. cruzi): 28,000 M^-1 sec^-1
kobs /[I]* (calpain): 180 M⁻¹ s⁻¹
percentage inhibition, L. donovani ([5]; 3 uM): 100%
percentage inhibition, L. donovani ([5]; 10 uM): 100%
percentage inhibition, L. donovani ([5]; 30 uM): 100%
percentage inhibition, L. donovani ([5]; 90 uM): T
ED50, T. cruzi [6]: 61880 nM
percentage inhibition, T. cruzi ([6]; 3 uM): 5.5%
percentage inhibition, T. cruzi ([6]; 10 uM): 6.2%
percentage inhibition, T. cruzi ([6]; 30 uM): 18.9%
percentage inhibition, T. cruzi ([6]; 90 uM): 74.2%
ED50, T. brucei [7]: 13850 nM
percentage inhibition, T. brucei ([7]; 1 uM): 11.9%
percentage inhibition, T. brucei ([7]; 3 uM): 13.5%
percentage inhibition, T. brucei ([7]; 10 uM): 35.4%
percentage inhibition, T. brucei ([7]; 30 uM): 72.7%
percentage inhibition, T. brucei ([7]; 90 uM): 100%
IC50 ([1]; cells printed in μM): 1000 nM
IC50 ([2]; cells printed in μM): 1000 nM
effectiveness against T. cruzi in J774 cells (T. cruzi): effective

(S)-(E)-3-[4-tert-butoxycarbonyl-(3,5-diiodotyrosyl)]-amino-5-phenyl-1-phenylsulfonyl-1-pentene [Boc-Tyr(I2)-HphVSPh]
kobs /[I]* (approximate second-order inactivation constant) ([3]; values marked *, 25° C., pH 6.2): 1400 M⁻¹ s⁻¹
kobs /[I]* (approximate second-order inactivation constant) [4]: 105,000 M^-1 sec^-1
kobs /[I]* (approximate second-order inactivation constant) (Cloned cathepsin S): 210,000 M^-1 sec^-1
kobs /[I]* (approximate second-order inactivation constant) (cruzain, from T. cruzi): 280,000 M^-1 sec^-1
k/KI (kirr/KI) (calpain): 0 M⁻¹ s⁻¹
effectiveness against T. cruzi in J774 cells (T. cruzi): effective

(S)-(E)-4-(4-morpholinecarbonylphenylalanyl)amino-6- phenyl-2-hexenoic acid [Mu-Phe-HphVA]
kirr [3]: 0.038 s⁻¹
Ki [3]: 85000 nM
k/KI (kirr/KI) ([3]; 25° C., pH 6.2): 450 M⁻¹ s⁻¹
IC50 ([1]; cells printed in μM): 1000 nM
IC50 ([2]; cells printed in μM): 2000 nM

(S)-(E)-Benzyl 4-(4-morpholinecarbonylphenylalanyl)amino-6-phenyl-2-hexenamide [Mu-Phe-HphVAMBzl]
k/KI (kirr/KI) ([3]; 25° C., pH 6.2): < 100 M⁻¹ s⁻¹
kobs /[I]* (approximate second-order inactivation constant) [4]: 2800 M⁻¹ s⁻¹
kobs /[I]* (approximate second-order inactivation constant) (Cloned cathepsin S): 10,800 M^-1 sec^-1
kobs /[I]* (approximate second-order inactivation constant) (cruzain, from T. cruzi): 70,200 M^-1 sec^-1
kobs /[I]* (calpain): < 50 M⁻¹ s⁻¹
percentage inhibition, L. donovani ([5]; 3 uM): 0%
percentage inhibition, L. donovani ([5]; 10 uM): 0%
percentage inhibition, L. donovani ([5]; 30 uM): 14.2%
percentage inhibition, L. donovani ([5]; 90 uM): 23.3%
percentage inhibition, T. cruzi ([6]; 3 uM): 0%
percentage inhibition, T. cruzi ([6]; 10 uM): 0%
percentage inhibition, T. cruzi ([6]; 30 uM): 0%
percentage inhibition, T. cruzi ([6]; 90 uM): 5.83%
percentage inhibition, T. brucei ([7]; 3 uM): 0%
percentage inhibition, T. brucei ([7]; 10 uM): 0%
percentage inhibition, T. brucei ([7]; 30 uM): 0%
percentage inhibition, T. brucei ([7]; 90 uM): 0%
IC50 ([1]; cells printed in nM): 200 nM
IC50 ([2]; cells printed in μM): 2000 nM

(S,S)-(E)-3-[4-morpholinecarbonyl-(1,2,3,4-tetrahydro-3-isoquinoline-carbonyl)]amino-5-phenyl-1-phenylsulfonyl-1-pentene [Mu-Tic-HphVSPh]
k/KI (kirr/KI) ([3]; 25° C., pH 6.2): 0 M⁻¹ s⁻¹
kobs /[I]* (approximate second-order inactivation constant) [4]: 12,600 M^-1 sec^-1
kobs /[I]* (approximate second-order inactivation constant) (Cloned cathepsin S): 630,000 M^-1 sec^-1
k/KI (kirr/KI) (cruzain, from T. cruzi): 0 M⁻¹ s⁻¹
k/KI (kirr/KI) (calpain): 0 M⁻¹ s⁻¹
effectiveness against T. cruzi in J774 cells (T. cruzi): effective

(S,S)-(E)-3-[tert-butoxycarbonyl-(1,2,3,4-tetrahydro-3-isoquinolinecarbonyl)]-amino-5-phenyl-1-phenylsulfonyl-1-pentene [Boc-Tic-HphVSPh]
k/KI (kirr/KI) [4]: 0 M⁻¹ s⁻¹
k/KI (kirr/KI) (Cloned cathepsin S): 0 M⁻¹ s⁻¹
k/KI (kirr/KI) (cruzain, from T. cruzi): 30,000 M^-1 sec^-1
k/KI (kirr/KI) (calpain): 0 M⁻¹ s⁻¹
effectiveness against T. cruzi in J774 cells (T. cruzi): effective

ethyl (S)-(E)-4-(4-morpholinecarbonylphenylalanyl)-amino-6-phenyl-2-hexenoate [Mu-Phe-HphVEOEt]
kirr [3]: 0.19 s⁻¹
Ki [3]: 19000 nM
k/KI (kirr/KI) ([3]; 25° C., pH 6.2): 10,100 M^-1 sec^-1
kirr [4]: 0.10 s⁻¹
Ki [4]: 2200 nM
k/KI (kirr/KI) [4]: 47,500 M^-1 sec^-1
kobs /[I]* (approximate second-order inactivation constant) (cruzain, from T. cruzi): 80,400 M^-1 sec^-1
IC50 ([1]; cells printed in nM): 300 nM
IC50 ([2]; cells printed in nM): 300 nM
